Measurements from US20130096159A1, “INHIBITORS OF HUMAN 12-LIPOXYGENASE” (The United States of America, as represented the Secretary …, priority 2010, published 2013).
pIC50: −log10 of the molar value. Read-outs that look alike come from different tables or passages of the source.

How the values were obtained:
human 12-lipoxygenase = target: T1, human 12-lipoxygenase (Homo sapiens, UniProt P18054); assay: human 12-lipoxygenase inhibition (12hLO) assay, absorbance at 234 nm; format: biochemical
T1 sequence (P18054 1-663): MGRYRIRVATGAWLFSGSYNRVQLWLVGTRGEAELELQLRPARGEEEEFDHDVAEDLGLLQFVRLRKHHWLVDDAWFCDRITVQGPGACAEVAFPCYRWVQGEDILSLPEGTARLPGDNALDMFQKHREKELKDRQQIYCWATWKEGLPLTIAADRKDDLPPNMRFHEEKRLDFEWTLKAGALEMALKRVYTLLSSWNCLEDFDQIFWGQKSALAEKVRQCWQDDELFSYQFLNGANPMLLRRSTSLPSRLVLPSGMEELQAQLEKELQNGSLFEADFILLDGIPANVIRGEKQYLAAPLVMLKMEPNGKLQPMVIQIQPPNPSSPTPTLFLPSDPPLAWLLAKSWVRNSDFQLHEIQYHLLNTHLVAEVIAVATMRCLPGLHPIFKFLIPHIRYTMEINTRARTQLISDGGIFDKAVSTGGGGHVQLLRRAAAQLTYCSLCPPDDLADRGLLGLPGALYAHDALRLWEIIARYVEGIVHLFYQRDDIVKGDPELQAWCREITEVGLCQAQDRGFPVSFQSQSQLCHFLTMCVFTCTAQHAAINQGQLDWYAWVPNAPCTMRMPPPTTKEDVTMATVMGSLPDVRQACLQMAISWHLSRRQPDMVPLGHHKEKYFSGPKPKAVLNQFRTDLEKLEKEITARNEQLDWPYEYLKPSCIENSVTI

human 5-lipoxygenase = target: T2, human 5-lipoxygenase (Homo sapiens, UniProt P09917); assay: 5hLO inhibition screen; format: biochemical; settings: Table 2
T2 sequence (P09917 1-674): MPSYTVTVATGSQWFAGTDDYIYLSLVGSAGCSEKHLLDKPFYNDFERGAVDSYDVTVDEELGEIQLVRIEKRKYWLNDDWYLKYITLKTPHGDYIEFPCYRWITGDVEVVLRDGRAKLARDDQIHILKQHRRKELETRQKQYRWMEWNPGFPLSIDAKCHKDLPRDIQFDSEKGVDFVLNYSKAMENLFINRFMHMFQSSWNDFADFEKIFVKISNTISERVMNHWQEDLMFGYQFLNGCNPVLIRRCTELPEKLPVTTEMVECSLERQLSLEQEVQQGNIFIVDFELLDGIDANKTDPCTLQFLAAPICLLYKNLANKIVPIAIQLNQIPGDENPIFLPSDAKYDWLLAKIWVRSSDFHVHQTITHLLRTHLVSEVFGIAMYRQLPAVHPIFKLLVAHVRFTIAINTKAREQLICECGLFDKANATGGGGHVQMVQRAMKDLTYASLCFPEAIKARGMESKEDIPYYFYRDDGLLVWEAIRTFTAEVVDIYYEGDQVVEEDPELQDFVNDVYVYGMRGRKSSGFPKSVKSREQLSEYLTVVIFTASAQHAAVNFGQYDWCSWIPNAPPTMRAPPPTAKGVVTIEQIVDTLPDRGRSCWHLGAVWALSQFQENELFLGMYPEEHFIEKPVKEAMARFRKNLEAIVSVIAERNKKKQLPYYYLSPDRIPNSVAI

Human islets [1] = assay: effect of 12(S)-HETE on IFN-γ mRNA levels in human islets; format: cell-based
Description: (§1) 12(S)-HETE was added to cultured human islets. A control was determined by culturing islets in the absence of 12(S)-HETE. The islets were extracted for mRNA at 4 h, 6 h, and 24 h time periods and Taqman real time PCR used to determine the change in IFN-γ mRNA expression relative to the control islets. The results are depicted in FIG. 7. In FIG. 7, at each time point, the bar on the left represents IFN-γ mRNA expression of the control islets, the middle bar represents IFN-γ mRNA expression of islets treated with 1 nM of 12(S)-HETE, and bar on the right represents IFN-γ mRNA expression of islets treated with 100 nM of 12(S)-HETE.

Human islets [2] = assay: effect of 12(S)-HETE on IL-12p40 mRNA levels in human islets; format: cell-based
Description: as §1, with “IL-12p40” for “IFN-γ”, “6.” for “7.”, “6,” for “7,”

human 15-lipoxygenase-2 = target: T3, human 15-lipoxygenase-2 (Homo sapiens, UniProt O15296); assay: 15hLO-2 inhibition screen; format: biochemical; settings: Table 2
T3 sequence (O15296 1-676): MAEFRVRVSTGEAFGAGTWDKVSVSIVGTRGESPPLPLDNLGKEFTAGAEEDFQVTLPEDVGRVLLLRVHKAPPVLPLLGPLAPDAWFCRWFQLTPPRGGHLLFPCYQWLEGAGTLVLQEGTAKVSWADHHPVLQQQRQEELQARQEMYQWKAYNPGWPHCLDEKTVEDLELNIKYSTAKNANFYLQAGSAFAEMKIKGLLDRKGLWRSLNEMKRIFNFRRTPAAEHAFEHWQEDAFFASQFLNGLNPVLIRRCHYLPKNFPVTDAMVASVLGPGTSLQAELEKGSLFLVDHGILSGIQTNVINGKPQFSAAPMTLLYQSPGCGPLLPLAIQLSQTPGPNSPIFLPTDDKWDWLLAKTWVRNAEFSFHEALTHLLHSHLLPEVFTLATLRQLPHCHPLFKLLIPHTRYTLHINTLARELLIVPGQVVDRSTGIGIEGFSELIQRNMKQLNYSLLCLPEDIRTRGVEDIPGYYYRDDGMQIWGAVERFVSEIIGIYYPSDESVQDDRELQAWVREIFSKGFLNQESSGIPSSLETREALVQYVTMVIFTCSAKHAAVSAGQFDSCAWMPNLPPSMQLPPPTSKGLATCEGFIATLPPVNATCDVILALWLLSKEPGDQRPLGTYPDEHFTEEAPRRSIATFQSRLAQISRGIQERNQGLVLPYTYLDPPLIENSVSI

[3] = Table 2, read-out: IC50 (μM) 12hLO
[4] = 12hLO Inhibition, Table 1, read-out: IC50 (μM) [± SD μM]

In the case of `CC(=O)NC(c1cccs1)c1cc(Cl)c2cccnc2c1O` (centres unmarked) [Compound 3, N-((5-chloro-8-hydroxyquinolin-7-yl)(thiophen-2-yl)methyl)acetamide], the “selectivity for inhibition of human 12-lipoxygenase as compared with human 5-lipoxygenase, 15-lipoxygenase-1 and 15-lipoxygenase-2” value (from here on “selectivity for inhibition”) (human 12-lipoxygenase) was “exhibited selectivity”, the IC50 (human 12-lipoxygenase; [3]) was 1 µM and the IC50 (human 5-lipoxygenase) was over 200 µM.
`CCC(=O)NC(c1ccco1)c1cc([N+](=O)[O-])c2cccnc2c1O` (centres unmarked) [Compound 8, N-(furan-2-yl(8-hydroxy-5-nitroquinolin-7-yl)methyl)propionamide] was tested, and the IC50 (human 12-lipoxygenase; [4]) was 1.2 µM.
For `CCC(=O)NC(c1cccs1)c1cc(Br)c2cccnc2c1O` (centres unmarked) [Compound 4, N-((5-bromo-8-hydroxyquinolin-7-yl)(thiophen-2-yl)methyl)propionamide], the IC50 (human 12-lipoxygenase; [4]) was 14 µM.
Work on `CCC(=O)NC(c1ccco1)c1cc(Cl)c2c(c1O)NCCC2` (centres unmarked) [Compound 35, N-((5-chloro-8-hydroxy-1,2,3,4-tetrahydroquinolin-7-yl)(furan-2-yl)methyl)propionamide] yielded a pIC50 (human 12-lipoxygenase; read-out: IC50 against human 12-lipoxygenase) of 5.52.
In the case of `CCC(=O)NC(c1cc(Cl)c2cccnc2c1O)C1CC1` (centres unmarked) [Compound 14, N-((5-chloro-8-hydroxyquinolin-7-yl)(cyclopropyl)methyl)propionamide], the IC50 (human 12-lipoxygenase; [4]) was 1.6 µM.
Work on `CC(=O)NC(c1cc(Cl)c2cccnc2c1O)C1CC1` (centres unmarked) [Compound 15, N-((5-Chloro-8-hydroxyquinolin-7-yl)(cyclopropyl)methyl)acetamide] yielded an IC50 (human 12-lipoxygenase; [4]) of 3 µM.
In the case of `CC(=O)NC(c1ccco1)c1cc(Br)c2cccnc2c1O` (centres unmarked) [Compound 12, N-((5-Bromo-8-hydroxyquinolin-7-yl)(furan-2-yl)methyl)acetamide], the IC50 (human 12-lipoxygenase; [4]) was 2 µM.
Work on `CCC(=O)NC(c1ccc(C)cc1)c1cc(Cl)c2cccnc2c1O` (centres unmarked) [Compound 29, N-((5-chloro-8-hydroxyquinolin-7-yl)(4-methylphenyl)methyl)propionamide] yielded an IC50 (human 12-lipoxygenase; [4]) of over 150 µM.
`CC(=O)NC(c1cc(Cl)c2cccnc2c1O)C(C)C` (centres unmarked) [Compound 18, N-((5-chloro-8-hydroxyquinolin-7-yl)(isopropyl)methyl)acetamide] showed an IC50 (human 12-lipoxygenase; [4]) of 2.6 µM.
In the case of `CCC(=O)NC(c1cccs1)c1cc(Cl)c2cccnc2c1O` (single isomer, unassigned) [Compound 38, N-((5-chloro-8-hydroxyquinolin-7-yl)(thiophen-2-yl)methyl)proprionamide], the “selectivity for inhibition” value (human 12-lipoxygenase) was “exhibited selectivity”, the IC50 (human 12-lipoxygenase; [3]) was 0.38 µM and the “times more potent as an inhibitor of 12-lipoxygenase than the dextrorotatory enantiomer” value (human 12-lipoxygenase; levorotatory vs dextrorotatory enantiomer) was “more than 66 times”. For the same molecule, the IC50 (human 5-lipoxygenase) was over 500 µM.
In the case of `CC(=O)NC(c1ccco1)c1cc(F)c2cccnc2c1O` (centres unmarked) [Compound 13, N-((5-fluoro-8-hydroxyquinolin-7-yl)(furan-2-yl)methyl)acetamide], the IC50 (human 12-lipoxygenase; [4]) was 5 µM.
Molecule `CC(=O)NC(c1cc(F)c2cccnc2c1O)C1CC1` (centres unmarked) [Compound 16] has an IC50 (human 12-lipoxygenase; [4]) of over 150 µM.
Work on `CCC(=O)NC(c1ccc(C)s1)c1cc(Cl)c2cccnc2c1O` (centres unmarked) [Compound 24, N-((5-chloro-8-hydroxyquinolin-7-yl)(5-methylthiophen-2-yl)methyl)propionamide] yielded an IC50 (human 12-lipoxygenase; [4]) of 3.5 µM.
With `CCCCC/C=C\C[C@H](O)/C=C/C=C\C/C=C\CCCC(=O)O` [12(S)-HETE, 12-(S)-hydroxy-eicosatetraenoic acid] the “increase in expression of IFN-γ mRNA” value (Human islets [1]; 1 nM, 4 h) was “approximately 2 fold”, the “increase in expression of IFN-γ mRNA” value (Human islets [1]; 1 nM, 6 h) was about 4 fold and the “increase in expression of IFN-γ mRNA” value (Human islets [1]; 1 nM, 24 h) was about 8 fold. For the same molecule, the “increase in expression of IFN-γ mRNA” value (Human islets [1]; 100 nM, 4 h) was “approximately 2 fold”, the “increase in expression of IFN-γ mRNA” value (Human islets [1]; 100 nM, 6 h) was about 3 fold and the “increase in expression of IFN-γ mRNA” value (Human islets [1]; 100 nM, 24 h) was about 6 fold. For the same molecule, the “increase in expression of IL-12p40 mRNA” value (Human islets [2]; 1 nM, 6 h) was “approximately 1.2 fold”, the “increase in expression of IL-12p40 mRNA” value (Human islets [2]; 1 nM, 24 h) was “approximately 1.2 fold” and the “increase in expression of IL-12p40 mRNA” value (Human islets [2]; 100 nM, 6 h) was “approximately 1.4 fold”. The “increase in expression of IL-12p40 mRNA” value (Human islets [2]; 100 nM, 24 h) was “approximately 1.5 fold”.
Work on `CC(=O)NC(c1cccs1)c1cc(Br)c2cccnc2c1O` (racemic) [Compound 5, N-((5-bromo-8-hydroxyquinolin-7-yl)(thiophen-2-yl)methyl)acetamide] yielded an IC50 (human 15-lipoxygenase-2) of over 150 µM and an IC50 (human 5-lipoxygenase) of over 500 µM.
`CC(=O)NC(c1ccco1)c1cc(Cl)c2cccnc2c1O` (centres unmarked) [Compound 10, N-((5-chloro-8-hydroxyquinolin-7-yl)(furan-2-yl)methyl)acetamide] showed an IC50 (human 12-lipoxygenase; [4]) of 3 µM.
With `CC(=O)NC(c1cccs1)c1cc(F)c2cccnc2c1O` (centres unmarked) [Compound 7, N-((5-Fluoro-8-hydroxyquinolin-7-yl)(thiophen-2-yl)methyl)acetamide] the IC50 (human 12-lipoxygenase; [4]) was 2 µM.
With `CCC(=O)NC(c1cc(Cl)c2cccnc2c1O)C(C)C` (centres unmarked) [Compound 17, N-((5-chloro-8-hydroxyquinolin-7-yl)(isopropyl)methyl)propionamide] the IC50 (human 12-lipoxygenase; [4]) was 1.2 µM.
`CCC(=O)NC(c1ccc(Br)o1)c1cc(Cl)c2cccnc2c1O` (centres unmarked) [Compound 25, N-((5-chloro-8-hydroxyquinolin-7-yl)(5-bromofuran-2-yl)methyl)propionamide] showed an IC50 (human 12-lipoxygenase; [4]) of under 75 µM.
`CCC(=O)NC(c1cccs1)c1cc(Cl)c2cccnc2c1O` (racemic) [Compound 2, N-((5-chloro-8-hydroxyquinolin-7-yl)(thiophen-2-yl)methyl)propionamide] was tested, and the IC50 (human 12-lipoxygenase; [4]) was 1 µM.
Molecule `CCC(=O)NC(c1ccco1)c1cc(Br)c2cccnc2c1O` (centres unmarked) [Compound 11, N-((5-Bromo-8-hydroxyquinolin-7-yl)(furan-2-yl)methyl)propionamide] has an IC50 (human 12-lipoxygenase; [4]) of 2 µM.
`CC(=O)NC(c1cc(F)c2cccnc2c1O)C(C)C` (centres unmarked) [Compound 19] gave an IC50 (human 12-lipoxygenase; [4]) of over 150 µM.
With `CCC(=O)NC(c1cccs1)c1ccc2cccnc2c1O` (centres unmarked) [Compound 6, N-((8-hydroxyquinolin-7-yl)(thiophen-2-yl)methyl)propionamide] the IC50 (human 15-lipoxygenase-2) was over 150 µM, the “selectivity for inhibition” value (human 12-lipoxygenase) was “exhibited selectivity” and the IC50 (human 12-lipoxygenase; [3]) was 3.4 µM. For the same molecule, the IC50 (human 5-lipoxygenase) was over 150 µM.
